Laboratory results from PMC11047712, “Synergistic Antioxidant and Anti-Inflammatory Effects of Phenolic Acid-Conjugated Glutamine–Histidine–Glycine–Valine (QHGV) Peptides Derived from Oysters (Crassostrea talienwhanensis)” (Antioxidants, 2024).

Key:
[1] = test system: cyclooxygenase-2 (Cox-2) mRNA; test: Cox-2 mRNA expression in LPS-induced RAW 264.7 cells (qRT-PCR); type: cell-based, murine; settings: peptide 500 μM pretreated 2 h, LPS 0.1 μg/mL 24 h, normalized to Gapdh, n = 3
Experimental: (§2) The peptide and control groups were pretreated with 500 and 0 μM of the peptide solution, respectively, for 2 h, followed by stimulation with 0.1 μg/mL of LPS for 24 h. Total cellular RNA was isolated using the RNeasy Mini Kit (Qiagen, Santa Clara, CA, USA). Total RNA was used to synthesize complementary DNA (cDNA) using the PrimeScript™ 1st strand cDNA synthesis kit (TaKaRa, Kusatsu, Japan). […] The mRNA levels of iNos, Cox-2, and Col1a1 were normalized to that of Gapdh, which is a housekeeping gene. The mRNA levels were quantified using the 2^-ddCt method based on the Ct values.

[2] = test system: inducible nitric oxide synthase (iNos) mRNA; test: iNos mRNA expression in LPS-induced RAW 264.7 cells (qRT-PCR); type: cell-based, murine; settings: peptide 500 μM pretreated 2 h, LPS 0.1 μg/mL 24 h, normalized to Gapdh, n = 3
Experimental: as §2

[3] = test system: collagen I (COL1A1) protein; test: Collagen I (COL1A1) protein level in HaCaT cells (Western blot); type: cell-based, human; settings: peptide 500 µM, 24 h, Western blot densitometry normalized to GAPDH, n = 3
Experimental: (§1) HaCaT (3.0 × 10^5 cells/well) and RAW 264.7 (1.5 × 10^5 cells/well) cells were seeded in the wells of a six-well plate. HaCaT and RAW 264.7 cells were treated with the peptide solutions (500 µM) for 24 and 2 h, respectively, and then stimulated with LPS (0.1 μg/mL) for 15 min. The cells were then washed with cold PBS and lysed in a cold lysis buffer. Cell debris was removed after centrifugation at 12,000× g for 30 min at 4 °C. Protein concentration was determined using the bicinchoninic acid (BCA) protein assay. The four-times-concentrated protein-denaturing buffer (1.25 M Tris-HCl (pH 6.8), glycerol, SDS, 2-mercaptoethanol, and 0.4% bromophenol blue) was added to the cell lysate and the mixture was boiled at 100 °C for 5 min. Proteins were separated by electrophoresis on 10% (for MAPKs) or 12% (for collagen) sodium dodecyl sulfate-polyacrylamide gel and electroblotted onto polyvinylidene fluoride membranes. The membranes were blocked with 5% skimmed milk in Tris-buffered saline–Tween (TBS-T) at room temperature for 1 h. After washing, the membranes were incubated overnight in respective primary antibody solutions (anti-phospho-ERK, anti-phospho-JNK, anti-phospho-p38, anti-collagen I, anti-GAPDH or anti-β-actin antibodies) at 4 °C. The membranes were washed with TBS-T and incubated with a horseradish peroxidase-conjugated secondary antibody solution for 1 h at room temperature. They were washed again with TBS-T and PBS and developed using an enhanced chemiluminescence reagent. Images of the immunoblots were scanned with an iBright™ CL1500 Imaging System (Thermo Fisher Scientific, Waltham, MA, USA). The band intensities of phospho-ERK, phospho-JNK, phospho-p38, and collagen I proteins were quantified by densitometric analysis using the ImageJ software 1.8.0 (National Institutes of Health, NIH, Bethesda, MD, USA). To normalize for protein loading, antibodies against β-actin and GAPDH were used, and phospho-ERK 1/2, phospho-JNK, and phospho-p38 phosphorylation levels were expressed relative to those of ERK, p38, and JNK, respectively. The levels of collagen I were normalized to those of GAPDH. Images of raw Western blots are shown in the Supplementary Data.

[4] = ABTS radical scavenging activity test; type: biochemical; settings: for ABTS radical scavenging activity: 0.01 mM, n = 3; for ABTS radical scavenging activity / IC50: 5 min at room temperature, absorbance 734 nm; for Anti-oxidant Rank (ABTS radical scavenging activity rank) / IC50: Table S1; for Anti-oxidant Rank (ABTS radical scavenging activity rank): rank by IC50, 1 = most active; for IC50: tested 0.000001-1 mM, calculated by GraphPad Prism 5, unit inferred; for ABTS antioxidant activity (in words): various concentrations between 0.000001 and 1 mM
Experimental: The ABTS radical cation solution was prepared by mixing 1 mL of a 14 mM ABTS solution and 1 mL of 4.9 mM potassium persulfate. The mixture reacted in the dark at room temperature for 16 h. The ABTS solution was diluted with PBS (1:50, v/v), and 190 μL of it reacted with 10 μL of the sample solution in a 96-well plate at room temperature for 5 min. The absorbance at 734 nm was measured using a SpectraMax iD3 microplate reader (Molecular Devices, San Jose, CA, USA), and the ABTS radical scavenging activity rate was calculated using the following equation:ABTS radical scavenging activity (%) = 1 − (absorbance of sample/absorbance of water) × 100

[5] = test system: phospho-JNK; test: LPS-induced phosphorylation of JNK in RAW 264.7 cells (Western blot); type: cell-based, murine; settings: peptide 500 µM 2 h, LPS 0.1 μg/mL 15 min, densitometry relative to JNK, n = 3
Experimental: as §1, with “HaCaT and RAW 264.7 cells were treated with the peptide solutions (500 µM) for 24 and 2 h, respectively, and then stimulated with LPS (0.1 μg/mL) for 15 min.” left out, “The four-times-concentrated protein-denaturing buffer (1.25 M Tris-HCl (pH 6.8), glycerol, SDS, 2-mercaptoethanol, and 0.4% bromophenol blue) was added to the cell lysate and the mixture was boiled at 100 °C for 5 min. Proteins were separated by electrophoresis on 10% (for MAPKs) or 12% (for collagen) sodium dodecyl sulfate-polyacrylamide gel and electroblotted onto polyvinylidene fluoride membranes.” left out, “To normalize for protein loading, antibodies against β-actin and GAPDH were used, and phospho-ERK 1/2, phospho-JNK, and phospho-p38 phosphorylation levels were expressed relative to those of ERK, p38, and JNK, respectively.” left out

[6] = test system: phospho-ERK 1/2; test: LPS-induced phosphorylation of ERK in RAW 264.7 cells (Western blot); type: cell-based, murine; settings: peptide 500 µM 2 h, LPS 0.1 μg/mL 15 min, densitometry relative to ERK, n = 3
Experimental: as §1

[7] = DPPH radical scavenging activity test; type: biochemical; settings: various concentrations; 0.1 mM DPPH, 30 min in the dark at room temperature, absorbance 517 nm
Experimental: The DPPH method is based on a mechanism similar to the ABTS method. […] In a 96-well plate, 100 μL of the DPPH solution and 100 μL of the sample were treated and incubated at room temperature in the dark for 30 min. Absorbance at 517 nm was then measured using a SpectraMax iD3 microplate reader (Molecular Devices, San Jose, CA, USA). The solvents used for the samples were methanol for peptide samples and ethanol for phenolic acid samples.

[8] = test system: phospho-p38; test: LPS-induced phosphorylation of p38 in RAW 264.7 cells (Western blot); type: cell-based, murine; settings: peptide 500 µM 2 h, LPS 0.1 μg/mL 15 min, densitometry relative to p38, n = 3
Experimental: HaCaT (3.0 × 10^5 cells/well) and RAW 264.7 (1.5 × 10^5 cells/well) cells were seeded in the wells of a six-well plate. HaCaT and RAW 264.7 cells were treated with the peptide solutions (500 µM) for 24 and 2 h, respectively, and then stimulated with LPS (0.1 μg/mL) for 15 min. The cells were then washed with cold PBS and lysed in a cold lysis buffer. Cell debris was removed after centrifugation at 12,000× g for 30 min at 4 °C. Protein concentration was determined using the bicinchoninic acid (BCA) protein assay. The four-times-concentrated protein-denaturing buffer (1.25 M Tris-HCl (pH 6.8), glycerol, SDS, 2-mercaptoethanol, and 0.4% bromophenol blue) was added to the cell lysate and the mixture was boiled at 100 °C for 5 min. Proteins were separated by electrophoresis on 10% (for MAPKs) or 12% (for collagen) sodium dodecyl sulfate-polyacrylamide gel and electroblotted onto polyvinylidene fluoride membranes. The membranes were blocked with 5% skimmed milk in Tris-buffered saline–Tween (TBS-T) at room temperature for 1 h. […] The band intensities of phospho-ERK, phospho-JNK, phospho-p38, and collagen I proteins were quantified by densitometric analysis using the ImageJ software 1.8.0 (National Institutes of Health, NIH, Bethesda, MD, USA). […]

[9] = test system: collagen type I alpha 1 chain (Col1a1) mRNA; test: Collagen I (Col1a1) mRNA level in HaCaT cells (RT-PCR); type: cell-based, human; settings: peptide 500 μM, normalized to Gapdh, n = 3
Experimental: The peptide and control groups were pretreated with 500 and 0 μM of the peptide solution, respectively, for 2 h, followed by stimulation with 0.1 μg/mL of LPS for 24 h. Total cellular RNA was isolated using the RNeasy Mini Kit (Qiagen, Santa Clara, CA, USA). Total RNA was used to synthesize complementary DNA (cDNA) using the PrimeScript™ 1st strand cDNA synthesis kit (TaKaRa, Kusatsu, Japan). The sequences of oligonucleotide primers for amplifying inducible nitric oxide synthase (iNos), cyclooxygenase-2 (Cox-2), and collagen type I alpha 1 chain (Col1a1) synthesized from Bioneer (Daejeon, Republic of Korea) and glyceraldehyde-3-phosphate dehydrogenase (Gapdh) synthesized from Macrogen (Seoul, Republic of Korea) are listed in Table 1. […] The mRNA levels of iNos, Cox-2, and Col1a1 were normalized to that of Gapdh, which is a housekeeping gene. The mRNA levels were quantified using the 2^-ddCt method based on the Ct values.

[10] = test system: HaCaT cells; test: Cell viability (MTT assay) in HaCaT cells; type: cell-based, human; settings: 0.032-500 µM, 24 h
Experimental: Cell viability was assessed using an MTT assay. HaCaT cells (1.0 × 10^4 cells/mL) were seeded in a 96-well plate and cultured for 24 h. Thereafter, the cells were treated with the peptide solution (0–500 µM) for 24 h. […] The MTT solution was prepared by dissolving it in phosphate-buffered saline (PBS) at a concentration of 5 mg/mL. 10 μL of the prepared MTT solution was added to each well, and the plate was incubated for 4 h. After removing the culture medium, 200 μL of dimethyl sulfoxide (DMSO) was added to each well to solubilize any deposited formazan. The absorbance at 560 nm was measured using an Epoch microplate Spectrophotometer (BioTek, Winooski, VT, USA).

[11] = test system: intracellular ROS in RAW 264.7 cells; test: LPS-induced intracellular ROS, DCFH-DA fluorescence, in RAW 264.7 cells; type: cell-based, murine; settings: peptides and carnosine 500 μM pretreated 2 h, then LPS 0.1 μg/mL 24 h, n = 3
Experimental: RAW 264.7 cells (7.5 × 10^4 cells/mL) were seeded on sterile cover slips placed in the wells of a 12-well plate and cultured for 24 h. The cells were pretreated with peptide solutions (500 μM) and carnosine (500 μM) for 2 h and stimulated with LPS (0.1 μg/mL) for 24 h. Subsequently, they were treated with a 10 μM DCFH-DA solution for 30 min and washed with PBS. The washed cells were fixed with a 4% paraformaldehyde solution for 5 min, and intracellular ROS fluorescence was observed using a DMi8 inverted microscope (Leica, Wetzlar, Germany).

| IC50 [4] [µM] | Compound | reduction of LPS-induced Cox-2 mRNA level [1] | reduction of LPS-induced iNos mRNA level [2] | increase of collagen I protein level [3] [%] | ABTS radical scavenging activity [4] [%] | Anti-oxidant Rank (ABTS radical scavenging activity rank) [4] | other results |
| --- | --- | --- | --- | --- | --- | --- | --- |
| 17.8 | feruloyl-QHGV [Fe-QHGV] | 11% | did not significantly affect | 457 | 31 | 6 | decrease of p-JNK level [5]: 23% |
|  | glycyl-L-histidyl-L-lysine-Cu (II) [GHK-Cu, reference compound] | 24% | 45% |  |  |  |  |
|  | β-alanyl-L-histidine [carnosine, reference compound] | no significant effect | no significant effect |  |  |  |  |
| 14.7 | γ-L-glutamyl-L-cysteinyl-glycine [Glutathione, reference compound] |  |  |  |  | 3 |  |
|  | sinapoyl-QHGV [Si-QHGV] | 15% | did not significantly affect | 363 | 27 |  | decrease of p-ERK level [6]: 5% |
|  | COc1cc(C(=O)O)ccc1O [vanillic acid, reference compound] |  |  |  |  |  | DPPH radical scavenging activity (in words) [7]: weak antioxidant activity |
| 16.4 | vanilloyl-QHGV [Va-QHGV] | 16% | did not significantly affect | 163 | 34 | 4 | decrease of p-ERK level [6]: 24%; DPPH radical scavenging activity (in words) [7]: did not exhibit antioxidant effects |
| 16.7 | caffeoyl-QHGV [Ca-QHGV] | 8% | 26% | 316 | 33 | 5 | decrease of p-ERK level [6]: 9%; decrease of p-JNK level [5]: 10%; decrease of p-p38 level [8]: 5% |
|  | C[C@@H]1C[C@H]2[C@@H]3CCC4=CC(=O)C=C[C@]4(C)[C@@]3(F)[C@@H](O)C[C@]2(C)[C@@]1(O)C(=O)CO [DEX, Dexamethasone, reference compound] | ~91% | approximately 80% |  |  |  | decrease of p-ERK level [6]: markedly reduced; decrease of p-JNK level [5]: markedly reduced; decrease of p-p38 level [8]: markedly reduced |
| 23.8 | O=C1O[C@H]([C@@H](O)CO)C(O)=C1O [L-ascorbic acid, reference compound] |  |  |  | 20 | 7 |  |
|  | N-(1-oxohexadecyl) glycyl-L-histidyl-L-lysine [PTP-1, reference compound] |  |  |  |  |  | increase of collagen I mRNA level compared with the negative control group [9]: 135% |
| 2.49 | O=C(O)c1cc(O)c(O)c(O)c1 [Gallic acid, gallic acid, reference compound] |  |  |  |  | 1 | ABTS antioxidant activity (in words) [4]: highest antioxidant activity |
|  | QHGV [glutamine–histidine–glycine–valine] | reduced | reduced | 147 |  | 8 | ABTS antioxidant activity (in words) [4]: did not exhibit high antioxidant activity; increase of collagen I mRNA level compared with the negative control group [9]: 26%; cytotoxicity (in words) [10]: no cytotoxicity |

| Compound | IC50 [4] [µM] | reduction of LPS-induced Cox-2 mRNA level [1] | reduction of LPS-induced iNos mRNA level [2] | increase of collagen I protein level [3] [%] | ABTS radical scavenging activity [4] [%] | Anti-oxidant Rank (ABTS radical scavenging activity rank) [4] | other results |
| --- | --- | --- | --- | --- | --- | --- | --- |
| galloyl-QHGV [Ga-QHGV] | 4.58 | 22% | 60% | 354 | 74 | 2 | decrease of p-JNK level [5]: 18%; increase of collagen I mRNA level compared with the negative control group [9]: 140%; cytotoxicity (in words) [10]: no cytotoxicity; decrease of intracellular ROS levels compared to the LPS-treated group [11]: reduced LPS-induced ROS levels to the greatest extent |
